We go through 16 compounds from patent US11999727B2 (Tango Therapeutics, Inc., priority 2020, dated 2024).

Assay [1] deals with T1, PRMT5 (Homo sapiens, UniProt O14744).
T1 construct: purchased Viva (custom protein)
Description: PRMT5 biochemical IC50 assay with SAM as cofactor. To be noted: PRMT5, SAM as cofactor; read-out: SAM IC50.

In assay [2] the target is T1, PRMT5. Description: PRMT5 biochemical IC50 assay with no cofactor. To be noted: PRMT5, no cofactor. The source says: Table 1 indicates IC50 values (μM) against PRMT5 for exemplary compounds in the presence of SAM as cofactor, with no cofactor, and with MTA as cofactor, respectively (columns 4-6). […] Ki values can be calculated from the IC50 values as described in the Examples section. As detailed in the Examples section, for the assay performed in the presence of SAM, IC50=Ki×1.5 (Ki=IC50/1.5).

For assay [3], the target named is T1, PRMT5. Description: PRMT5 biochemical IC50 assay with MTA as cofactor. To be noted: PRMT5, MTA as cofactor; read-out: MTA IC50.
The subject of assay [4] is HAP1 MTAP-intact cell line. In words: SDMA in-cell western assay, HAP1 MTAP-intact. In kind it is cell-based. The following applies: Homo sapiens, HAP1, SDMA in-cell western, HAP1 MTAP-intact; read-out: MTAP HAP1 intact IC50. The procedure, abridged: (§1)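 Readout: in-cell western detection of SDMA. Cells: HAP1 expressing endogenous MTAP and an MTAP-null HAP1 counterpart. Output: IC50.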

Assay [5] has as its system HAP1 MTAP-deleted cell line. In words: SDMA in-cell western assay, HAP1 MTAP-deleted. The assay is classed as cell-based. To be noted: for IC50: Homo sapiens, HAP1, SDMA in-cell western, HAP1 MTAP-deleted; for MTAP intact/deleted ratio: SDMA in-cell western. The method, boiled down: as §1
Assay [6] relates to HAP1 MTAP-deleted cell line. Description: Viability assay, MTAP-deleted cell line. In kind it is cell-based. To be noted: Homo sapiens, read-out: HAP1 MTAP deleted viability. The source says: Table 1 additionally indicates IC50 values in a viability assay for the MTAP-deleted cell line (column 10), indicating the effect of treatment with compound on cell survival.
Where [7] appears, read: read-out: No Cofactor/ rel IC50.
Setting [8] is: read-out: HAP 1 MTAP deleted IC50.
Where [9] appears, read: IC50 ratio HAP1 MTAP-intact / HAP1 MTAP-deleted.
Where [10] appears, read: HAP1, viability assay, MTAP-deleted cell line.
Where [11] appears, read: read-out: HAP1 MTAP deleted IC50.
Where [12] appears, read: IC50 ratio HAP1 MTAP-intact vs HAP1 MTAP-deleted.
[13] abbreviates: HAP1, viability assay, HAP1 MTAP-deleted.

T1 sequence (O14744 whole entry): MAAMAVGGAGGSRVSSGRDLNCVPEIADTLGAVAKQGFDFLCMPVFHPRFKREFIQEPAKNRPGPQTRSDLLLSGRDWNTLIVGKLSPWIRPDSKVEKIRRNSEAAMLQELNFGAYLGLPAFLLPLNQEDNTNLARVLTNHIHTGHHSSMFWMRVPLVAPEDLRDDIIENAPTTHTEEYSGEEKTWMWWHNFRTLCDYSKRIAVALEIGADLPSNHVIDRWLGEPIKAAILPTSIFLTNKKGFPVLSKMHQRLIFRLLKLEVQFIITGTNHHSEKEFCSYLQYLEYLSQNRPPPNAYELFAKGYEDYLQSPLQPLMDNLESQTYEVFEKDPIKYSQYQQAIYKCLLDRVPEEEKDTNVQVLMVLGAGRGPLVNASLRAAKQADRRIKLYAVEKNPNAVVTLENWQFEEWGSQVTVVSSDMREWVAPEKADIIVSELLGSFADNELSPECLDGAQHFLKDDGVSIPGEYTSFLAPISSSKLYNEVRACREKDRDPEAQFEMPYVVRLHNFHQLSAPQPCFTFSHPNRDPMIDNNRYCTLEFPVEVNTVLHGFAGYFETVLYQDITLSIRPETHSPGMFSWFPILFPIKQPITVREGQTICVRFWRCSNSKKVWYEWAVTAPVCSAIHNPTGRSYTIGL
T1 sequence (Q9BQA1 whole entry partner): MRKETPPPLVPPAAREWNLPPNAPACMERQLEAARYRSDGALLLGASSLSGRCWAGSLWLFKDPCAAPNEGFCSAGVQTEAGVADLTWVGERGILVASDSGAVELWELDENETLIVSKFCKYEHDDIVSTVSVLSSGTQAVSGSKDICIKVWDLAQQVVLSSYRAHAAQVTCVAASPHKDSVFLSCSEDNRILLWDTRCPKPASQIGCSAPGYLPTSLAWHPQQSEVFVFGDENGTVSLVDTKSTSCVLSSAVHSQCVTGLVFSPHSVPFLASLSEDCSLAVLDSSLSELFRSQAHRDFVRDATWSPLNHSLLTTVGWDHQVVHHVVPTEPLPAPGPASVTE

With `C[C@@H]1CC[C@@H](C2CCC2)N(C(=O)C(=O)Nc2cncc(C(N)=O)c2)C1` (racemic) [Compound 155, 5-[[2-[(2R,5S)-2-cyclobutyl-5-methyl-1-piperidyl]-2-oxo-acetyl]amino]pyridine-3-carboxamide], the IC50 at PRMT5 [1] was 50 to 500 nM; on PRMT5 [2] (setting [7]) it was 50 to 500 nM; on PRMT5 [3] it was less than 50 nM; in assay [4], more than 1000 nM; in assay [5] (setting [8]) it was 100 to 1000 nM; in assay [6] (setting [10]), more than 10000 nM. In assay [5] (setting [9]), the “MTAP intact/deleted ratio” value is listed as “A (an IC50 ratio greater than or equal to 10 fold)”.

In the case of `COc1ncc(NC(=O)C(=O)N2C[C@@H](C)CC[C@@H]2c2ccc3nn(C4CCN(C)CC4)cc3c2)cc1C(N)=O` (racemic) [Compound 1115, 2-Methoxy-5-[[2-oxo-2-[rac-(2R,5S)-5-methyl-2-[2-(1-methyl-4-piperidyl)indazol-5-yl]-1-piperidyl]acetyl]amino]pyridine-3-carboxamide], the IC50 at PRMT5 [1] is less than 50 nM; at PRMT5 [2] (read-out: No Cofactor/rel IC50) it was less than 50 nM; at PRMT5 [3], less than 50 nM; in assay [4], 100 to 1000 nM; in assay [5] (setting [11]), less than 100 nM; in assay [6] (setting [10]), less than 1000 nM. Further, the MTAP intact/deleted ratio result in assay [5] (setting [12]) is “A (an IC50 ratio greater than or equal to 10 fold)”.

`CCc1cc(NC(=O)C(=O)N2C[C@H](C)CC[C@H]2c2ccc(N)nc2)cnc1N` (single isomer, unassigned) [Compound 856]: the IC50 at PRMT5 [1] is more than 500 nM; at PRMT5 [2] (read-out: No Cofactor/rel IC50), more than 500 nM; at PRMT5 [3], more than 500 nM; in assay [4], more than 1000 nM; in assay [5] (setting [11]), more than 1000 nM; in assay [6] (setting [13]), more than 10000 nM. Also, in assay [5] (setting [9]), the MTAP intact/deleted ratio result is “B (an IC50 ratio greater than or equal to 3 fold but lower than 10 fold)”.

Turning to `Cc1cc(NC(=O)C(=O)N2CCCCC2c2cccc3[nH]cnc23)cnc1N` (stereo not shown) [Compound 142, N-(6-Amino-5-methyl-3-pyridyl)-2-[2-(1H-benzimidazol-4-yl)-1-piperidyl]-2-oxo-acetamide], the IC50 at PRMT5 [1] is 50 to 500 nM; on PRMT5 [2] (setting [7]) it was more than 500 nM; at PRMT5 [3], 50 to 500 nM; in assay [4], more than 1000 nM; in assay [5] (setting [8]) it was more than 1000 nM; in assay [6] (setting [10]), more than 10000 nM. The “MTAP intact/deleted ratio” value in assay [5] (setting [9]) is on record as “B (an IC50 ratio greater than or equal to 3 fold but lower than 10 fold)”.

On to `C[C@H]1CC[C@H](c2ccc3c(c2)C(=O)NC3)N(C(=O)C(=O)Nc2cncc(C(N)=O)c2)C1` (single isomer, unassigned) [Compound 751], for which the IC50 at PRMT5 [1] was more than 500 nM; on PRMT5 [2] (read-out: No Cofactor/rel IC50), more than 500 nM; on PRMT5 [3], more than 500 nM; in assay [4] it was more than 1000 nM; in assay [5] (setting [11]), more than 1000 nM; in assay [6] (setting [13]) it was more than 10000 nM. In addition, the MTAP intact/deleted ratio result in assay [5] (setting [9]) was “C (an IC50 ratio of less than 3 fold)”.

As to `COc1ncc(NC(=O)C(=O)N2C[C@@H](C)CC[C@@H]2c2cnc3c(c2)CCC(=O)N3)cc1C(N)=O` (racemic) [Compound 891, rac-2-Methoxy-5-[[2-[(2S,5R)-5-methyl-2-(7-oxo-6,8-dihydro-5H-1,8-naphthyridin-3-yl)-1-piperidyl]-2-oxo-acetyl]amino]pyridine-3-carboxamide], the IC50 was 50 to 500 nM on PRMT5 [1]; 50 to 500 nM at PRMT5 [2] (read-out: No Cofactor/rel IC50); 50 to 500 nM at PRMT5 [3]; more than 1000 nM in assay [4]; 100 to 1000 nM in assay [5] (setting [8]); more than 10000 nM in assay [6] (setting [10]). The MTAP intact/deleted ratio result in assay [5] (setting [9]) is reported as “A (an IC50 ratio greater than or equal to 10 fold)”.

Take `COc1ncc(NC(=O)C(=O)N2C[C@@H](C)CC[C@@H]2c2ccc3c(c2)CNC3=O)cc1C(N)=O` (single isomer, unassigned) [Compound 750, 2-methoxy-5-(2-(5-methyl-2-(1-oxoisoindolin-5-yl)piperidin-1-yl)-2-oxoacetamido)nicotinamide]: the IC50 was more than 500 nM at PRMT5 [1]; more than 500 nM on PRMT5 [2] (read-out: No Cofactor/rel IC50); more than 500 nM at PRMT5 [3]; more than 1000 nM in assay [4]; more than 1000 nM in assay [5] (setting [11]); more than 10000 nM in assay [6] (setting [13]). Besides, the MTAP intact/deleted ratio result in assay [5] (setting [9]) is “C (an IC50 ratio of less than 3 fold)”.

As to `Cc1cccc([C@H]2CC[C@H](C)CN2C(=O)C(=O)Nc2cncc(C(N)=O)c2)c1` (single isomer, unassigned) [Compound 219], the IC50 was 50 to 500 nM at PRMT5 [1]; less than 50 nM at PRMT5 [2] (read-out: No Cofactor/rel IC50); less than 50 nM at PRMT5 [3]; more than 1000 nM in assay [4]; less than 100 nM in assay [5] (setting [11]); 1000 to 10000 nM in assay [6] (setting [10]). Besides, the MTAP intact/deleted ratio entry in assay [5] (setting [9]) is “A (an IC50 ratio greater than or equal to 10 fold)”.

As for `C[C@@H]1CC[C@@H](c2ccc(NCC(=O)N(C)C)cc2)N(C(=O)C(=O)Nc2cncc(C(N)=O)c2)C1` (single isomer, unassigned) [Compound 437], the IC50 was 50 to 500 nM at PRMT5 [1]; 50 to 500 nM at PRMT5 [2] (read-out: No Cofactor/rel IC50); less than 50 nM at PRMT5 [3]; more than 1000 nM in assay [4]; less than 100 nM in assay [5] (setting [11]); 1000 to 10000 nM in assay [6] (setting [10]). Moreover, the MTAP intact/deleted ratio result in assay [5] (setting [9]) is listed as “A (an IC50 ratio greater than or equal to 10 fold)”.

As to `CCc1cc(NC(=O)C(=O)N2C[C@H](C)CC[C@H]2c2ccc(NS(C)(=O)=O)nc2)cnc1N` (single isomer, unassigned) [Compound 995], the IC50 is 50 to 500 nM on PRMT5 [1]; 50 to 500 nM at PRMT5 [2] (read-out: No Cofactor/rel IC50); 50 to 500 nM on PRMT5 [3]; more than 1000 nM in assay [4]; 100 to 1000 nM in assay [5] (setting [8]); more than 10000 nM in assay [6] (setting [10]). Further, in assay [5] (setting [9]), the MTAP intact/deleted ratio entry was “A (an IC50 ratio greater than or equal to 10 fold)”.

Take `CCc1cc(NC(=O)C(=O)N2C[C@@H](C)CC[C@@H]2c2cccc(CCN(C)C)c2)cnc1N` [Compound 1226, N-(6-amino-5-ethylpyridin-3-yl)-2-((2R,5S)-2-(3-(2-(dimethylamino)ethyl)phenyl)-5-methylpiperidin-1-yl)-2-oxoacetamide]: the IC50 at PRMT5 [1] was 50 to 500 nM; on PRMT5 [2] (read-out: No Cofactor/rel IC50), less than 50 nM; at PRMT5 [3], less than 50 nM; in assay [4] it was 100 to 1000 nM; in assay [5] (setting [11]), less than 100 nM; in assay [6] (setting [10]), less than 1000 nM. The MTAP intact/deleted ratio result in assay [5] (setting [12]) is given as “A (an IC50 ratio greater than or equal to 10 fold)”.

With `Cc1cc(NC(=O)C(=O)N2CCCC[C@H]2C2CCCCC2)cnc1N` (single isomer, unassigned) [Compound 34], the IC50 on PRMT5 [1] is more than 500 nM; at PRMT5 [2] (setting [7]) it was more than 500 nM; on PRMT5 [3], more than 500 nM; in assay [4] it was more than 1000 nM; in assay [5] (setting [8]) it was more than 1000 nM; in assay [6] (setting [10]), more than 10000 nM. For the same compound, the “MTAP intact/deleted ratio” value in assay [5] (setting [9]) is “C (an IC50 ratio of less than 3 fold)”.

Consider `C[C@@H]1CC[C@@H](c2ccc(F)c(Cl)c2)N(C(=O)C(=O)Nc2cncc(C(N)=O)c2)C1` (single isomer, unassigned) [Compound 513], for which the IC50 is more than 500 nM at PRMT5 [1]; more than 500 nM at PRMT5 [2] (read-out: No Cofactor/rel IC50); more than 500 nM at PRMT5 [3]; more than 1000 nM in assay [4]; more than 1000 nM in assay [5] (setting [11]); more than 10000 nM in assay [6] (setting [10]). For the same compound, the MTAP intact/deleted ratio result in assay [5] (setting [9]) is given as “C (an IC50 ratio of less than 3 fold)”.

Consider `C[C@@H]1CC[C@@H](c2ccc3sccc3c2)N(C(=O)C(=O)Nc2cncc(C(N)=O)c2)C1` (single isomer, unassigned) [Compound 586], for which the IC50 on PRMT5 [1] was more than 500 nM; at PRMT5 [2] (read-out: No Cofactor/rel IC50), more than 500 nM; on PRMT5 [3], more than 500 nM; in assay [4], more than 1000 nM; in assay [5] (setting [8]), more than 1000 nM; in assay [6] (HAP1, viability IC50, MTAP-deleted cell line) it was more than 10000 nM. For the same compound, the MTAP intact/deleted ratio result in assay [5] (setting [9]) is given as “B (an IC50 ratio greater than or equal to 3 fold but lower than 10 fold)”.

For the compound `NC(=O)c1cncc(NC(=O)C(=O)N2CCCCC2c2ccccc2)c1` (stereo not shown) [Compound 29, 5-[[2-oxo-2-(2-phenyl-1-piperidyl)acetyl]amino]pyridine-3-carboxamide], the IC50 is 50 to 500 nM on PRMT5 [1]; more than 500 nM at PRMT5 [2] (setting [7]); 50 to 500 nM on PRMT5 [3]; more than 1000 nM in assay [4]; 100 to 1000 nM in assay [5] (setting [8]); more than 10000 nM in assay [6] (setting [10]). For the same compound, the “MTAP intact/deleted ratio” value in assay [5] (setting [9]) was “A (an IC50 ratio greater than or equal to 10 fold)”.

With `Cc1cncc(NC(=O)C(=O)N2C[C@H](C)CC[C@H]2c2ccc(C)c(C)c2)c1` (single isomer, unassigned) [Compound 21], the IC50 was 50 to 500 nM at PRMT5 [1]; 50 to 500 nM on PRMT5 [2] (setting [7]); 50 to 500 nM on PRMT5 [3]; more than 1000 nM in assay [4]; more than 1000 nM in assay [5] (setting [8]); more than 10000 nM in assay [6] (setting [10]). Besides, the “MTAP intact/deleted ratio” value in assay [5] (setting [9]) is reported as “B (an IC50 ratio greater than or equal to 3 fold but lower than 10 fold)”.
